28 compounds from ChEMBL document CHEMBL5727946, “PD-1/PD-L1 inhibitors” (2020) can be followed below.

The target in the assay is Programmed cell death protein 1/Programmed cell death 1 ligand 1 (Homo sapiens, UniProt Q15116+Q9NZQ7). In words: PD-1/PD-L1 & CTLA/CD80 Biochemical Protein-Protein Interaction Assay: Compounds were tested in biochemical protein-protein interaction assays to determine if they can specifically block the interaction between the extracellular domains of PD-1/PD-L1 or CTLA/CD80. Binding of the protein pairs is measured using a bead based Amplified Luminescent Proximity Homogeneous Assay (ALPHA) platform. […] Final protein concentration in the assays were 0.3 nM (His tagged PD-L1), 2.5 nM (biotinylated Fc-PD-1), 1 nM (His tagged CTLA4) and 1 nM (biotinylated CD80). The format is protein-complex assay.
Chain of Programmed cell death protein 1/Programmed cell death 1 ligand 1 (Q15116 whole entry, the tested form may be a part): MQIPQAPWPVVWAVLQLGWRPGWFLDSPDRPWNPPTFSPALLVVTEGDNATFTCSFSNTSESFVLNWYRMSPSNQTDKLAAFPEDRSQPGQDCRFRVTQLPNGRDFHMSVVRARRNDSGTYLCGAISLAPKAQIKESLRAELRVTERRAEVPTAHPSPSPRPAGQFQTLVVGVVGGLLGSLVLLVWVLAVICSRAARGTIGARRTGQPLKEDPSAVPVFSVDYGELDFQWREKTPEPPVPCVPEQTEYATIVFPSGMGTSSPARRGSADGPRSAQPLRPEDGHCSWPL
Chain of Programmed cell death protein 1/Programmed cell death 1 ligand 1 (Q9NZQ7 whole entry, the tested form may be a part): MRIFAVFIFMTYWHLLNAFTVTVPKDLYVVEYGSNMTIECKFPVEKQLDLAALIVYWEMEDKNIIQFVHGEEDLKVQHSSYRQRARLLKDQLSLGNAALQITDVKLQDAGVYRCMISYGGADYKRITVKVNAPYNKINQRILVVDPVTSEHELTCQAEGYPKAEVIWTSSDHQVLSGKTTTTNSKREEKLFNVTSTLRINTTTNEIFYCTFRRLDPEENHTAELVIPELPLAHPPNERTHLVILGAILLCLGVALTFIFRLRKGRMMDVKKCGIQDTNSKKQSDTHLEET

As for `COc1nc(O[C@H]2CCc3c(-c4cccc(-c5cnc([C@@H](C)NC[C@H]6CCC(=O)N6)c(OC)n5)c4Cl)cccc32)c(Cl)cc1CN1CC[C@@H](C(=O)O)C1`, the IC50 is ≤ 0.064 nM.
The value for `CCS(=O)(=O)NC(=O)[C@@H]1CCN(Cc2cc(Cl)c(O[C@H]3CCc4c(-c5cccc(-c6ccc(CNC[C@@H]7CCC(=O)N7)c(OC)n6)c5Cl)cccc43)nc2OC)C1` was 0.117 nM; that for `COc1nc(-c2cccc(-c3cccc4c3CC[C@@H]4Oc3nc(OC)c(CN4CC[C@@H](C(=O)NS(C)(=O)=O)C4)cc3Cl)c2Cl)ccc1CN1CC(C)(O)C1` was ≤ 0.064 nM; that for `COc1nc(-c2cccc(-c3cccc4c3CC[C@@H]4Oc3nc(OCc4cncc(Cl)c4)c(CNC4(C(=O)O)CC4)cc3C(F)(F)F)c2Cl)ccc1CNC[C@@H]1CCC(=O)N1` was 0.101 nM.
In turn, `COc1nc(-c2cccc(-c3cccc4c3CC[C@@H]4Oc3nc(OC)c(CN4CC[C@@H](C(=O)NS(=O)(=O)C(F)F)C4)cc3Cl)c2Cl)ccc1CNC[C@@H]1CCC(=O)N1` came in with an IC50 of 0.152 nM.
The value for `COc1nc(-c2cccc(-c3cccc4c3CC[C@@H]4Oc3nc(OC)c(CN4CC(C(=O)NS(=O)(=O)C(F)F)C4)cc3Cl)c2Cl)ccc1CNC[C@@H]1CCC(=O)N1` was 0.199 nM; that for `COc1nc(-c2cccc(-c3cccc4c3CC[C@@H]4Oc3nc(OCc4cncc(C#N)c4)c(CN4CC[C@@H](C(=O)O)C4)cc3Cl)c2Cl)ccc1CNC[C@@H]1CCC(=O)N1` was ≤ 0.064 nM; that for `COc1nc(-c2cccc(-c3cccc4c3CC[C@@H]4Oc3nc(OC)c(CN4CCC[C@@H]4C(=O)O)cc3Cl)c2Cl)ccc1CNC[C@@H]1CCC(=O)N1` was ≤ 0.064 nM.
The value for `COc1nc(-c2cccc(-c3cccc4c3CC[C@@H]4Oc3nc(OC)c(CN4CC[C@@H](C(=O)NS(C)(=O)=O)C4)cc3Cl)c2Cl)ccc1CNC[C@@H]1CCC(=O)N1` was ≤ 0.064 nM; that for `COc1nc(-c2cccc(-c3cccc4c3CC[C@@H]4Oc3nc(OC)c(CN4CCC[C@H]4C(=O)O)cc3Cl)c2Cl)ccc1CNC[C@@H]1CCC(=O)N1` was ≤ 0.064 nM.
`COc1nc(-c2cccc(-c3cccc4c3CC[C@@H]4Oc3nc(OC)c(CN4CC(C(=O)NS(C)(=O)=O)C4)cc3Cl)c2Cl)ccc1CN1CC(C)(O)C1` returned an IC50 of 0.088 nM.
To `COc1nc(-c2cccc(-c3cccc4c3CC[C@@H]4Oc3nc(OCc4cncc(F)c4)c(CN4CC5(C(=O)O)CCC4CC5)cc3Cl)c2Cl)ccc1CNC[C@@H]1CCC(=O)N1` belongs ≤ 0.064 nM; to `COc1nc(-c2cccc(-c3cccc4c3CC[C@@H]4Oc3nc(OC)c(CNC4(C(=O)O)CCC4)cc3Cl)c2Cl)ccc1CNC[C@@H]1CCC(=O)N1`, ≤ 0.064 nM; to `CCOc1nc(O[C@H]2CCc3c(-c4cccc(-c5ccc(CNC[C@@H]6CCC(=O)N6)c(OC)n5)c4Cl)cccc32)c(Cl)cc1CN1CC2(C(=O)O)CCC1CC2`, ≤ 0.064 nM.
In the case of `COc1nc(-c2cccc(-c3cccc4c3CC[C@@H]4Oc3nc(OCc4cncc(C#N)c4)c(CN4CC[C@H](C(=O)O)C4)cc3Cl)c2Cl)ccc1CNC[C@@H]1CCC(=O)N1`, the IC50 was ≤ 0.064 nM.
Consider `COc1nc(-c2cccc(-c3cccc4c3CC[C@@H]4Oc3nc(OC)c(CN4CC(C(=O)O)C4)cc3Cl)c2Cl)ccc1CN1CC(C)(O)C1`, for which the IC50 is ≤ 0.064 nM.
On to `COc1nc(-c2cccc(-c3cccc4c3CC[C@@H]4Oc3nc(OCC#N)c(CN4CC5(C(=O)O)CCC4CC5)cc3Cl)c2Cl)ccc1CNC[C@@H]1CCC(=O)N1`, for which the IC50 is ≤ 0.064 nM.
The value for `COc1nc(-c2cccc(-c3cccc4c3CC[C@@H]4Oc3nc(OCc4cncc(C#N)c4)c(CN4CC5(C(=O)O)CCC4CC5)cc3Cl)c2Cl)ccc1CNC[C@@H]1CCC(=O)N1` was ≤ 0.064 nM.
As for `COc1nc(-c2cccc(-c3cccc4c3CC[C@@H]4Oc3nc(OC)c(CN4CC[C@H](C(=O)NS(C)(=O)=O)C4)cc3Cl)c2Cl)ccc1CNC[C@@H]1CCC(=O)N1`, the IC50 was ≤ 0.064 nM.
As to `CCOC(=O)C1CN(Cc2cc(Cl)c(O[C@H]3CCc4c(-c5cccc(-c6ccc(CNC[C@@H]7CCC(=O)N7)c(OC)n6)c5Cl)cccc43)nc2OC)C1`, the half-maximal inhibitory concentration (IC50) amounted to 1.99 nM.
The value for `COc1nc(-c2cccc(-c3cccc4c3CC[C@@H]4Oc3nc(OC)c(CN4CCC[C@@H](C(=O)NS(C)(=O)=O)C4)cc3Cl)c2Cl)ccc1CNC[C@@H]1CCC(=O)N1` was 0.068 nM; that for `COC(=O)[C@@H]1CCN(Cc2cc(Cl)c(O[C@H]3CCc4c(-c5cccc(-c6ccc(CNC[C@@H]7CCC(=O)N7)c(OC)n6)c5Cl)cccc43)nc2OC)C1` was 3.9 nM; that for `COc1nc(-c2cccc(-c3cccc4c3CC[C@@H]4Oc3nc(OC)c(CNC4(C(=O)O)CC4)cc3Cl)c2Cl)ccc1CNC[C@@H]1CCC(=O)N1` was ≤ 0.064 nM.
The value for `COc1nc(-c2cccc(-c3cccc4c3CC[C@@H]4Oc3nc(OC)c(CNC4(C(=O)O)CCOCC4)cc3Cl)c2Cl)ccc1CNC[C@@H]1CCC(=O)N1` was ≤ 0.064 nM; that for `COc1nc(-c2cccc(-c3cccc4c3CC[C@@H]4Oc3nc(OC)c(CN4CCC[C@@]4(C)C(=O)O)cc3Cl)c2Cl)ccc1CNC[C@@H]1CCC(=O)N1` was ≤ 0.064 nM.
As for `COc1nc(-c2cccc(-c3cccc4c3CC[C@@H]4Oc3nc(OC)c(CN[C@@H]4CCC[C@@H]4C(=O)O)cc3Cl)c2Cl)ccc1CNC[C@@H]1CCC(=O)N1`, the half-inhibitory concentration (IC50) was ≤ 0.064 nM.
`COc1nc(-c2cccc(-c3cccc4c3CC[C@@H]4Oc3nc(OC(F)F)c(CN4CC5(C(=O)O)CCC4CC5)cc3Cl)c2Cl)ccc1CNC[C@@H]1CCC(=O)N1`: the IC50 was 0.169 nM.
Take `CCOc1nc(O[C@H]2CCc3c(-c4cccc(-c5ccc(CNC[C@@H]6CCC(=O)N6)c(OC)n5)c4Cl)cccc32)c(Cl)cc1CN1CC[C@H](C(=O)O)C1`: the IC50 was ≤ 0.064 nM.

By IC50 is commonly meant the concentration at which inhibition is half-maximal. Low values mean inhibition by little substance, high ones a need for much substance.
